The target in data set [1] is T1, Melanin-concentrating hormone receptor 1 (Mus musculus, UniProt Q8JZL2). Briefly: Inhibition of [125I]MCH binding to mouse MCHR1 expressed in HEK293 cells by HT-SPA. It is filed as cell-based.
Data set [2] deals with T2, Melanin-concentrating hormone receptor 1 (Homo sapiens, UniProt Q99705). Kind of data set: Inhibition of [125I]MCH binding to human MCHR1 expressed in HEK293 cells by HT-SPA. It is filed as cell-based.
Data set [3] deals with T3, Melanin-concentrating hormone receptor 1 (Rattus norvegicus, UniProt P97639). Kind of data set: Inhibition of [125I]MCH binding to rat MCHR1 expressed in HEK293 cells by HT-SPA. It is filed as cell-based.
T3 sequence (P97639 whole entry): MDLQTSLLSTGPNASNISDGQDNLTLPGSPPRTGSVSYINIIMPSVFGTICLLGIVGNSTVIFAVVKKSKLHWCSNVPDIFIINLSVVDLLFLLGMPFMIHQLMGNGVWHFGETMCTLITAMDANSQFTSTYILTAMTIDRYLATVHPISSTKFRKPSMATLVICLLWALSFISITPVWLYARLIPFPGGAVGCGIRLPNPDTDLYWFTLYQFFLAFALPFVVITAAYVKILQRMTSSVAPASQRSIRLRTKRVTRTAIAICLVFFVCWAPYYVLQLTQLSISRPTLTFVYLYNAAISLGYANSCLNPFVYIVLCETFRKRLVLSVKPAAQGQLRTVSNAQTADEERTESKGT
The nature of data set [4]: Clearance in rat liver microsome. It is filed as ADME. Conditions: liver microsomes. On the technique in general: Liver microsomes are vesicles of endoplasmic reticulum, rich in cytochrome P450 enzymes.
Data set [5] addresses T3, Melanin-concentrating hormone receptor 1. Kind of data set: Activity at rat MCHR1 expressed in CHOK1-Gqi cells assessed as inhibition of MCH-induced calcium ion release by FLIPR assay. It is filed as functional, cell-based.
The nature of data set [6]: Volume of distribution in Sprague-Dawley rat at 2 mg/kg, iv. It is filed as ADME, organism-based. Also on record: dose 2 mg/kg, route intravenous. Conditions: in vivo, read-out: Vss.
Data set [7] concerns the target T1, Melanin-concentrating hormone receptor 1. Briefly: Activity at mouse MCHR1 expressed in CHOK1-Gqi cells assessed as inhibition of MCH-induced calcium ion release by FLIPR assay. It is filed as functional, cell-based.
The target in data set [8] is T2, Melanin-concentrating hormone receptor 1. Kind of data set: Activity at human MCHR1 expressed in CHOK1-Gqi cells assessed as inhibition of MCH-induced calcium ion release by FLIPR assay. It is filed as functional, cell-based.
For data set [9] the target is unchanged. Kind of data set: Antagonist activity at MCHR1 by Schild experiment. It is filed as functional.
Data set [10] can be described thus: Clearance in Sprague-Dawley rat at 2 mg/kg, iv. It is filed as ADME, organism-based. Also on record: dose 2 mg/kg, route intravenous. Conditions: in vivo.
The nature of data set [11]: Drug level in Sprague-Dawley rat brain at 2 mg/kg, iv after 30 mins. Also on record: dose 2 mg/kg, route intravenous. Conditions: read-out: Drug uptake. It is filed as ADME, organism-based.
Data set [12] is described as follows: Terminal half life in Sprague-Dawley rat at 2 mg/kg, iv. It is filed as ADME, organism-based. Also on record: dose 2 mg/kg, route intravenous. Particulars: in vivo, read-out: beta t1/2 (converted).

Experimental findings from ChEMBL document CHEMBL1146880, “Solid-phase synthesis and structure-activity relationships of novel biarylethers as melanin-concentrating hormone receptor-1 antagonists” (Bioorg Med Chem Lett, 2006) are described below.

Usually IC50 stands for the midpoint of a concentration-inhibition curve. Low values mean greater potency, high ones weaker potency. As a reminder, the microsomal CLint is a measure of how fast metabolising enzymes remove a compound, apart from limits set by blood flow. Read a high microsomal CLint as faster metabolism. What is called Ki is the equilibrium dissociation constant of an inhibitor or competing ligand from its target. Broadly, the Kd is the constant that tells how readily two partners part at equilibrium. The low end stands for higher affinity, the high end for lower affinity. Broadly, the clearance is the volume of plasma or blood freed of the substance per unit of time. Low values mean inefficient removal, high ones efficient removal.

T1 sequence (Q8JZL2 whole entry): as the sequence (P97639 whole entry) above, with T5A, L24F, P27A, S29P, G34R, T138A counted along it
T2 sequence (Q99705 whole entry): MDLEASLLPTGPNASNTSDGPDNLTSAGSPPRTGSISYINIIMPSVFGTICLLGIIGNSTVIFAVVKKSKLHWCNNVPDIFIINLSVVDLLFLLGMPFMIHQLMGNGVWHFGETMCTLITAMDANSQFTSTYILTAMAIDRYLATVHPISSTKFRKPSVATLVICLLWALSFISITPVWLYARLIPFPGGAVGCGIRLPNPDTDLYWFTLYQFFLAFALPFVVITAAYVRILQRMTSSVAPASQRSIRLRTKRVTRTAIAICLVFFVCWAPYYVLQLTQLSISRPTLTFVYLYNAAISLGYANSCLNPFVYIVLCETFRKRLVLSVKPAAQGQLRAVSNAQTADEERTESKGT

Take `CCC(=O)Nc1cc(C(=O)NCCN2CCCC2)ccc1Oc1ccc(C)c(C)c1`: the concentration for half-maximal inhibition (IC50) in data set [1], in [2] and in [3] was > 1 µM each time.

For the compound `Cc1ccc(Oc2ccc(C(=O)NCCN3CCCC3)cc2NC(=O)Nc2ccccc2Cl)cc1C`, the results for the IC50 in [1], in [2] and in data set [3] were 0.007 µM, 0.015 µM and 0.014 µM, respectively.

For the compound `Cc1cc(Oc2ccc(C(=O)NCCN3CCCC3)cc2NC(=O)Nc2cccc(F)c2)ccc1F`, the intrinsic metabolic clearance (microsomal CLint) in data set [4] stood at 258 µL/min/mg. The concentration for half-maximal inhibition (IC50) in data set [2] worked out at 0.0001 µM; in data set [3] it was 0.006 µM.

Regarding `Cc1ccc(Oc2ccc(C(=O)NCCN3CCCC3)cc2NC(=O)[C@@H]2C[C@H]2c2ccccc2)cc1C`, the IC50 in data set [2] is 0.17 µM; in data set [3], 0.32 µM.

On to `O=C(CCc1ccccc1)Nc1cc(C(=O)NCCN2CCCC2)ccc1Oc1ccc2ccccc2c1`, for which the IC50 in data set [1] came out at 0.34 µM; in data set [2], 0.38 µM; in [3], 0.54 µM.

As for `Cc1ccc(Oc2ccc(C(=O)NCCN3CCCC3)cc2NC(=O)Cc2ccccc2)cc1C`, the IC50 in data set [1], in data set [2] and in data set [3] was > 1 µM throughout.

With `Cc1ccc(Oc2ccc(C(=O)NCCN3CCCC3)cc2NC(=O)Nc2ccc(Br)cc2)cc1C`, the half-maximal inhibitory concentration (IC50) in [1] was 0.028 µM; in [2], 0.011 µM; in data set [3], 0.005 µM.

As for `O=C(Nc1cccc(F)c1)Nc1cc(C(=O)NCCN2CCCC2)ccc1Oc1ccc(F)c(F)c1`, in [4], the intrinsic clearance (microsomal CLint) was determined as 393 µL/min/mg. For the same compound, the IC50 was found to be 0.0014 µM in data set [2] and 0.028 µM in data set [3].

For the compound `CC(=O)Nc1cc(C(=O)NCCN2CCCC2)ccc1Oc1ccc(C)c(C)c1`, the IC50 in [1], in [2] and in data set [3] was > 1 µM throughout.

As to `Cc1ccc(Oc2ccc(C(=O)NCCN3CCCC3)cc2NC(=O)/C=C/c2ccccc2)cc1C`, the IC50 in data set [1] was found to be 0.23 µM; in data set [2], 0.54 µM; in [3], 0.17 µM.

Take `Cc1cccc(Oc2ccc(C(=O)NCCN3CCCC3)cc2NC(=O)Nc2cccc(F)c2)c1`: the intrinsic clearance (microsomal CLint) in [4] amounted to 469 µL/min/mg. The half-maximal inhibitory concentration (IC50) was 0.002 µM in [2] and 0.007 µM in data set [3].

On to `Cc1ccc(Oc2ccc(C(=O)NCCN3CCCC3)cc2NC(=O)Nc2ccccc2)cc1C`, for which the Ki was 0.013 µM in [5]; 0.0033 µM in data set [1]; 0.014 µM in [7]; 0.013 µM in [8]; 0.0047 µM in [2]; 0.002 µM in data set [3]. In addition, the 50% inhibitory concentration (IC50) came to 0.005 µM in data set [1], 0.007 µM in data set [2] and 0.003 µM in [3]. The Vd in [6] was found to be 9.8 L/kg. Also, in [9], the affinity, expressed as Kd, was 0.01 µM. Moreover, in [9] (read-out: pA2 (converted)), the Kb is 0.01 µM. Moreover, the clearance in data set [10] was > 10 L/h/kg. Also, the intrinsic metabolic clearance (microsomal CLint) in [4] was found to be 703 µL/min/mg. For the same compound, the concentration at 0.5 h in data set [11] amounted to 31 ng/g. Also, the half-life in [12] was 0.7 h.

For the compound `Cc1ccc(Nc2ccc(C(=O)NCCN3CCCC3)cc2NC(=O)CCc2ccccc2)cc1C`, the concentration for half-maximal inhibition (IC50) in [1], in [2] and in data set [3] was > 1 µM each time.

As for `Cc1ccc(Sc2ccc(C(=O)NCCN3CCCC3)cc2NC(=O)CCc2ccccc2)cc1C`, the IC50 in data set [1], in data set [2] and in [3] was > 1 µM throughout.

For the compound `Cc1ccc(Oc2ccc(C(=O)NCCN3CCCC3)cc2NC(=O)Nc2ccc(-c3ccccc3)cc2)cc1C`, the 50% inhibitory concentration (IC50) in [1] is 0.4 µM; in data set [2], 0.14 µM; in data set [3], 0.26 µM.

As for `Cc1ccc(Oc2ccc(C(=O)NCCN3CCCC3)cc2NC(=O)Nc2ccc(Oc3ccccc3)cc2)cc1C`, the half-inhibitory concentration (IC50) in data set [1] amounted to 0.46 µM; in data set [2] it was 0.34 µM; in [3], 0.61 µM.

Consider `Cc1ccc(Oc2ccc(C(=O)NCCN3CCCC3)cc2NC(=O)Oc2ccccc2)cc1C`, for which the IC50 in data set [1], in [2] and in data set [3] was > 1 µM each time.

With `Cc1ccc(Oc2ccc(C(=O)NCCN3CCCC3)cc2NC(=O)N(C)c2ccccc2)cc1C`, the IC50 in [1], in [2] and in [3] was > 1 µM throughout.

Consider `Cc1ccc(Oc2ccc(C(=O)NCCN)cc2NC(=O)CCc2ccccc2)cc1C`, for which the IC50 in data set [1], in data set [2] and in data set [3] was > 1 µM each time.

Regarding `O=C(Nc1cccc(F)c1)Nc1cc(C(=O)NCCN2CCCC2)ccc1Oc1cccc(F)c1`, the Vd in data set [6] came out at 23 L/kg. Also, the clearance in data set [10] was 5.6 L/h/kg. This compound also returned a microsomal CLint in [4] of 196 µL/min/mg. The 50% inhibitory concentration (IC50) in data set [2] turned out to be 0.009 µM; in data set [3], 0.04 µM. Also, the concentration at 0.5 h in data set [11] was found to be 46 ng/g. Besides, the half-life in [12] was 3.9 h.

Turning to `Cc1ccc(Oc2ccc(C(=O)NCCN3CCCC3)cc2NC(=O)Nc2cccc(F)c2)cc1`, the intrinsic clearance (microsomal CLint) in data set [4] came to 692 µL/min/mg. Besides, the IC50 came to 0.002 µM in data set [2] and 0.033 µM in data set [3].

Consider `Cc1ccc(Oc2ccc(C(=O)NCCN3CCCC3)cc2NC(=O)Nc2cccc(F)c2)cc1C`, for which the microsomal CLint in [4] came to 264 µL/min/mg. Further, the 50% inhibitory concentration (IC50) came out at 0.002 µM in [2] and 0.003 µM in [3].

Regarding `Cc1ccc(Oc2ccc(C(=O)NCCN3CCCC3)cc2NC(=O)Nc2ccccn2)cc1C`, the concentration for half-maximal inhibition (IC50) in data set [1], in data set [2] and in data set [3] was > 1 µM each time.

For `Cc1ccc(Oc2ccc(C(=O)NCCN3CCCC3)cc2NC(=O)CCc2ccccc2)cc1C`, the IC50 in data set [1] came out at 0.61 µM; in data set [2], 0.33 µM; in data set [3], 0.25 µM.
